Experimental data reported in the NIST ThermoML archive (doi:10.1016/j.jct.2015.09.002).

Experiment: xn = mol fraction of the nth substance listed
Details: 93.2 kPa, Liquid, Vibrating tube method

CCCN [propan-1-amine] + CC#N
mass density [kg/m3]
Details	293.15 K	298.15 K	303.15 K	308.15 K
x2 = 0	716.48	711.21	705.88	700.62
x2 = 0.0105	717.02	711.79	706.42	701.16
x2 = 0.0199	717.49	712.26	706.89	701.63
x2 = 0.0296	717.97	712.74	707.37	702.11
x2 = 0.0409	718.55	713.3	708.3	702.66
x2 = 0.0512	719.01	713.79	708.42	703.16
x2 = 0.061	719.48	714.26	708.9	703.65
x2 = 0.0707	719.96	714.7	709.38	704.14
x2 = 0.0809	720.48	715.23	710.24	704.64
x2 = 0.0895	720.87	715.66	710.31	705.06
x2 = 0.0993	721.35	716.14	710.79	705.55
x2 = 0.1493	723.85	718.65	713.34	708.1
x2 = 0.2006	726.46	721.27	715.97	710.75
x2 = 0.2499	729.08	723.91	718.64	713.3
x2 = 0.2998	731.77	726.59	721.31	715.96
x2 = 0.3507	734.55	729.34	724.05	718.82
x2 = 0.3993	737.38	732.18	726.9	721.58
x2 = 0.4479	740.27	735.05	729.77	724.44
x2 = 0.4988	743.34	738.1	732.79	727.56
x2 = 0.5486	746.55	741.33	736.02	730.68
x2 = 0.6017	750.02	744.77	739.46	734.16
x2 = 0.6499	753.32	748.08	742.76	737.45
x2 = 0.6998	756.86	751.61	746.49	740.98
x2 = 0.7501	760.68	755.4	750.19	744.7
x2 = 0.8001	764.57	759.28	754.03	748.54
x2 = 0.8487	768.54	763.25	757.85	752.47
x2 = 0.8995	772.9	767.55	762.15	756.72
x2 = 0.9089	773.68	768.32	762.93	757.54
x2 = 0.9201	774.65	769.28	763.89	758.5
x2 = 0.928	775.36	770	764.6	759.19
x2 = 0.9393	776.43	771.07	765.67	760.24
x2 = 0.9491	777.27	771.89	766.51	761.05
x2 = 0.9594	778.22	772.82	767.45	761.98
x2 = 0.9678	778.99	773.6	768.21	762.74
x2 = 0.9795	780.09	774.69	769.3	763.82
x2 = 0.9893	781.01	775.61	770.21	764.73

CCN(CC)CC [triethylamine] + CC#N
mass density [kg/m3]
Details	293.15 K	298.15 K	303.15 K	308.15 K
x2 = 0	727.7	723.02	718.36	713.65
x2 = 0.0113	728.13	723.44	718.77	714.06
x2 = 0.0212	728.41	723.73	719.05	714.32
x2 = 0.03	728.67	723.97	719.29	714.57
x2 = 0.0406	728.98	724.28	719.6	714.86
x2 = 0.0502	729.23	724.53	719.84	715.1
x2 = 0.0591	729.48	724.77	720.06	715.32
x2 = 0.0701	729.78	725.07	720.35	715.6
x2 = 0.0842	730.18	725.45	720.73	715.97
x2 = 0.0944	730.47	725.73	721.02	716.24
x2 = 0.1013	730.66	725.97	721.24	716.48
x2 = 0.1519	732.16	727.46	722.63	717.85
x2 = 0.1991	733.6	728.85	723.99	719.16
x2 = 0.2501	735.21	730.39	725.53	720.64
x2 = 0.3018	736.94	732.07	727.17	722.25
x2 = 0.3505	738.65	733.76	728.84	723.88
x2 = 0.4003	740.52	735.58	730.62	725.63
x2 = 0.4482	742.43	737.48	732.49	727.48
x2 = 0.5002	744.69	739.7	734.68	729.63
x2 = 0.5511	747.1	742.08	737.03	731.95
x2 = 0.5995	749.58	744.55	739.43	734.36
x2 = 0.6499	752.4	747.32	742.18	737.06
x2 = 0.702	755.6	750.5	745.3	740.16
x2 = 0.7498	758.83	753.71	748.42	743.28
x2 = 0.7998	762.53	757.35	752.07	746.81
x2 = 0.85	766.68	761.45	756.13	750.82
x2 = 0.8994	771.19	765.92	760.59	755.2
x2 = 0.9095	772.21	766.93	761.6	756.23
x2 = 0.9199	773.25	767.97	762.63	757.25
x2 = 0.9293	774.23	768.93	763.58	758.19
x2 = 0.9402	775.35	770.05	764.69	759.29
x2 = 0.9495	776.36	771.03	765.7	760.33
x2 = 0.9591	777.43	772.08	766.69	761.27
x2 = 0.9685	778.48	773.13	767.72	762.31
x2 = 0.99	780.9	775.52	770.1	764.64
